The values below come from patent US20240391882A1 (Mirati Therapeutics, Inc., priority 2023, published 2024).

Format in all cases: cell-based
Test [1] concerns T47D (PI3Kα H1047R mutant) cells. The test can be described thus: Cell viability (CellTiter-Glo 2.0) in T47D cells. The settings on record: Homo sapiens, T47D, 72 h, approximately 72 hours. Here is the method: (§1) This Example illustrates that representative compounds of the invention decrease the viability of cells.
(§2) The ability of a compound of Formula (I) to decrease the viability of cells was measured using CellTiter-Glo 2.0 (CTG) Luminescent Cell Viability Assay (#G9241) obtained from Promega (Madison, WI).
(§3) To prepare assay plates for viability assays, cells were trypsinized, resuspended in fresh media, and viable cells were counted utilizing trypan blue exclusion. T47D, SKBR3, or MKN1 cells were seeded at 1000 cells in 30 μl per well in a solid white flat bottom 384 cell culture plate (Perkin Elmer #6007680) and incubated at 37° C. overnight.
(§4) Assay day 1, cells were dosed using an Echo Liquid Handler (Beckman Coulter) with compounds at a 10 μm starting concentration and serially diluted (1:4) for a total of 10 concentrations. Cells were incubated for approximately 72 hours with the compounds (solubilized in DMSO) at 37° C. After 72 hours of treatment, cell plates were equilibrated to room temperature before adding 15 μl of CTG to each well, plates were then covered in aluminum foil to protect from light, incubated at room temperature for 30 minutes on a microtiter plate shaker, and luminescence readings were collected using a CLARIOstar microplate reader (BMG Labtech, Germany). Percent of vehicle control values were plotted as log(inhibitor) vs. response—Variable slope (four parameters) for curve fitting and IC50 values were determined using XLfit.
Background: Cellular ATP, detected with luciferase, serves as a proxy for viable cell number.

The test system of test [2] is SKBR3 (PI3Kα wild type) cells. As to the kind of experiment: Cell viability (CellTiter-Glo 2.0) in SKBR3 cells. The settings on record: Homo sapiens, SK-BR-3; SKBR3 (PI3Kα wild type) cells, approximately 72 hours, CellTiter-Glo 2.0; read-out: SKBR3 (WT) Viability IC50. On the procedure: as §1, §2, §3, §4
Test [3] concerns pAKT in T47D (PI3Kα H1047R mutant) cells. As to the kind of experiment: Inhibition of pAKT (alphaLISA Surefire Ultra AKT 1/2/3 pS473) in T47D cells. The settings on record: Homo sapiens; T47D (PI3Kα H1047R mutant) cells, 24 hr compound incubation, alphaLISA pS473; read-out: T47D (H1047R) pAKT 24 hr (IC50). Here is the method:
The ability of a compound of Formula (I) to inhibit the formation of pAKT was measured using alphaLISA Surefire Ultra AKT 1/2/3 (pS473) Assay Kit (#ALSU-PAKT-B50K) was obtained from Perkin Elmer (Waltham, MA).
To prepare assay plates for pAKT alphaLISA assays, cells were trypsinized, resuspended in fresh media, and viable cells were counted utilizing trypan blue exclusion. Prior to seeding, cells were washed with PBS and resuspended in HBSS (Gibco, #14025092). T47D (12,000/w), SKBR3 (12,000/w), or MKN1 (24,000/w) cells were seeded at 12 μl per well in a solid white flat bottom 384 cell culture plate (Perkin Elmer #6007680).
Immediately after seeding, cells were dosed using an Echo Liquid Handler (Beckman Coulter) with compounds at a 10.4 μm starting concentration and serially diluted (1:4) for a total of 10 concentrations. 14 vehicle (DMSO) and 14 positive control (Alpelisib @3.125 μm) wells were included on each assay plate. Cells were incubated with the compounds (solubilized in DMSO) for approximately 24 hours at 37° C. After 24 hours of treatment, cells were lysed with 3 μl of the 5× lysis buffer (provided and incubated at room temperature for 15 min on a microtiter plate shaker). Once cells were sufficiently lysed, 7.5 μl of the acceptor bead mix (made using the manufacturers recommended dilutions) was added to each well and left on the microtiter plate shaker for 1 min prior to incubating plates at room temperature for 1 hour, in the absence of light. After 1 hour of incubation with the acceptor bead mix, 7.5 μl of the donor bead mix (made using the manufacturers recommended dilutions) was added to each well and left on the microtiter plate shaker for 1 min prior to incubating plates at room temperature overnight in the absence of light. Plates were then imaged the following day using a CLARIOstar microplate reader (BMG Labtech, Germany).
Percent of control values were calculated by subtracting the average signal from the positive control (alpelisib) treated wells from all treated wells (including DMSO control wells) and then divided by the average signal from the vehicle DMSO treated control wells. Percent of vehicle control values were plotted as log(inhibitor) vs. response—Variable slope (four parameters) for curve fitting and IC50 values were determined using XLfit.
A general note: In Alpha technology, singlet oxygen from a donor bead excites a nearby acceptor bead.

The term IC50 denotes the concentration that inhibits the measured activity by half.

`Cc1cc([C@@H](C)Nc2ccc(Cl)nc2C(=O)O)c2nc(N3CC4CC3C(F)(F)C4)c(C#N)nc2c1` (single isomer, unassigned) [Example 10]: the values for the IC50 in test [1] and in test [2] were 71.6 nM and over 10000 nM, respectively.

For `Cc1cc([C@@H](C)Nc2ccc(Cl)nc2C(=O)O)c2nc(N3CC4CC3C(F)(F)C4)c(C#N)nc2c1` (single isomer, unassigned) [Example 11], the IC50 in test [1] is 64 nM; in test [2] it was over 10000 nM.

For `COC[C@@H]1[C@H]2CN(c3nc4c([C@@H](C)Nc5ccc(Cl)nc5C(=O)O)cc(C)cc4nc3C#N)C[C@@H]12` [Example 166, 6-chloro-3-(((R)-1-(2-cyano-3-((1R,5S,6R)-6-(methoxymethyl)-3-azabicyclo[3.1.0]hexan-3-yl)-7-methylquinoxalin-5-yl)ethyl)amino)picolinic acid], the 50% inhibitory concentration (IC50) in test [3] was 1.2 nM; in test [1] it was 38.6 nM.

For the compound `Cc1cc([C@@H](C)Nc2ccc(Cl)nc2C(=O)O)c2nc(N3C[C@@H]4[C@@H](CO)[C@@H]4C3)c(C#N)nc2c1` [Example 167, 6-chloro-3-(((R)-1-(2-cyano-3-((1R,5S,6R)-6-(hydroxymethyl)-3-azabicyclo[3.1.0]hexan-3-yl)-7-methylquinoxalin-5-yl)ethyl)amino)picolinic acid], the IC50 is 4.6 nM in test [3] and 150 nM in test [1].

As for `Cc1cc([C@@H](C)Nc2ccc(Cl)nc2C(=O)O)c2nc(N3C[C@@H]4C[C@H]3CO4)c(C#N)nc2c1` [Example 173, 3-(((R)-1-(3-((1S,4S)-2-oxa-5-azabicyclo[2.2.1]heptan-5-yl)-2-cyano-7-methylquinoxalin-5-yl)ethyl)amino)-6-chloropicolinic acid], the half-maximal inhibitory concentration (IC50) in test [3] stood at 0.3 nM; in test [1], 26.8 nM.

Turning to `Cc1cc([C@@H](C)Nc2ccc(Cl)nc2C(=O)O)c2nc(N3C[C@H]4C[C@@H]3CO4)c(C#N)nc2c1` [Example 174, 3-(((R)-1-(3-((1R,4R)-2-oxa-5-azabicyclo[2.2.1]heptan-5-yl)-2-cyano-7-methylquinoxalin-5-yl)ethyl)amino)-6-chloropicolinic acid], the IC50 in test [3] is 4.4 nM; in test [1], 36.6 nM.

Consider `Cc1cc([C@@H](C)Nc2ccc(Cl)nc2C(=O)O)c2nc(N3CC[C@H](F)C3)c(C#N)nc2c1` [Example 176, 6-chloro-3-(((R)-1-(2-cyano-3-((S)-3-fluoropyrrolidin-1-yl)-7-methylquinoxalin-5-yl)ethyl)amino)picolinic acid], for which the IC50 was determined as 1.7 nM in test [3] and 34.5 nM in test [1].

On to `Cc1cc([C@@H](C)Nc2ccc(Cl)nc2C(=O)O)c2nc(N3CC[C@@H](F)C3)c(C#N)nc2c1` [Example 177, 6-chloro-3-(((R)-1-(2-cyano-3-((R)-3-fluoropyrrolidin-1-yl)-7-methylquinoxalin-5-yl)ethyl)amino)picolinic acid], for which the IC50 in test [3] was 0.5 nM; in test [1], 19.4 nM.

For the compound `Cc1cc([C@@H](C)Nc2ccc(Cl)nc2C(=O)O)c2nc(N3C[C@H](F)[C@@H](F)C3)c(C#N)nc2c1` [Example 178, 6-chloro-3-(((R)-1-(2-cyano-3-((3S,4S)-3,4-difluoropyrrolidin-1-yl)-7-methylquinoxalin-5-yl)ethyl)amino)picolinic acid], the IC50 in test [3] amounted to 0.5 nM; in test [1] it was 24.4 nM.

For `Cc1cc([C@@H](C)Nc2ccc(Cl)nc2C(=O)O)c2nc(N3CCN(c4ccc(C(F)(F)F)cn4)CC3)c(C#N)nc2c1` [Example 179, (R)-6-chloro-3-((1-(2-cyano-7-methyl-3-(4-(5-(trifluoromethyl)pyridin-2-yl)piperazin-1-yl)quinoxalin-5-yl)ethyl)amino)picolinic acid], the figures for the IC50 in test [3] and in test [1] were 3.9 nM and 77.3 nM, respectively.

Consider `Cc1cc([C@@H](C)Nc2ccc(Cl)nc2C(=O)O)c2nc(N3CCO[C@@H](C)C3)c(C#N)nc2c1` [Example 260, 6-chloro-3-(((R)-1-(2-cyano-7-methyl-3-((S)-2-methylmorpholino)quinoxalin-5-yl)ethyl)amino)picolinic acid], for which the values for the IC50 in test [3] and in test [1] were 1.9 nM and 73.8 nM, respectively.
